Experimental data from patent publication US8674107B2, “Crystal of anti-bacterial compound” (priority 2010, dated 2014).
Structures can show the parent of a compound that is named as a salt.

Experiments:
Type in all cases: physicochemical
[1] = Evaluation of chemical stability (storage under dry-heat or wet-heat, HPLC); details: 2 weeks
Protocol: Approximately 2 mg each of various samples prepared in Example 1 was weighed into an aluminum pan for thermal analysis and stored under dry-heat (60° C., 0% RH) or wet-heat (40° C., 75% RH) conditions. One and two weeks later, each sample was collected, and the change in weight was determined. Then, the whole amount was dissolved in 20 mL of an eluent and subjected to HPLC analysis.

[2] = Evaluation of solubility in test solutions (HPLC); details: for Concentration: 37° C., total of 30 minutes
Protocol: The monohydrochloride dihydrate prepared in Example 1 and the free form (anhydrous form) were used in the following evaluation of solubility: an appropriate amount of each sample was added to 2 mL each of the test solutions (water, the JP 1st fluid for the disintegration test (JP1), and the JP 2nd fluid for the disintegration test (JP2)), fasted state simulated intestinal fluid (FaSSIF), and fed state simulated intestinal fluid (FeSSIF), and incubated in a thermobath of 37° C. Each solution was shaken in a vortex mixer for 30 seconds every 5 minutes (for a total of 30 minutes). Then, the supernatant was filtered through a membrane filter (pore size: 0.45 μm). After appropriate dilution with an eluent, the diluted solution was subjected to HPLC analysis to calculate concentration.
Measurement conditions for HPLC;
Column: Waters Symmetry C18 3.5 um, 4.6×100 mm
Column temperature: 40° C.
Mobile phase: 50 mM KH2PO4-K2HPO4 (pH 7.0)/MeCN=8:2

[3] = Evaluation of moisture absorption and desorption properties (microbalance); details: 25° C.; for moisture absorption and desorption patterns: 10-90% RH; for change in weight (moisture absorption and desorption properties): measurement range 10-90% RH
Protocol: Of the various samples prepared in Example 1, the monohydrochloride dihydrate, monohydrochloride monohydrate, and sulfate were separately placed in quartz holders and examined for their moisture absorption and desorption behaviors using a microbalance under the following measurement conditions:
Measurement conditions for moisture absorption and desorption behavior (sample volume: approximately 10 mg, measurement range: 10-90% RH, measurement temperature: 25° C., variable: within 0.03%, varying length of time: 10 minutes, apparatus: atmospheric pressure-type automatic water vapor sorption instrument manufactured by VTI Corp.)

[4] = listed as monohydrochloride dihydrate of compound A, monohydrochloride dihydrate

With `Cc1c(N2C[C@]3(N)CCC[C@]3(F)C2)c(F)cc2c(=O)c(C(=O)O)cn([C@@H]3C[C@@H]3F)c12` [Free form (anhydride), 7-[(1R,5S)-1-amino-5-fluoro-3-azabicyclo[3.3.0]octan-3-yl]-6-fluoro-1-[(1R,2S)-2-fluorocyclopropan-1-yl]-1,4-dihydro-8-methyl-4-oxoquinoline-3-carboxylic acid] the “Increase in related substances (%)” value ([1]; 40° C./75% RH) was 0.01%, the “Increase in related substances (%)” value ([1]; 60° C./0% RH) was 0.01% and the Concentration ([2]; Fasted state simulated intestinal fluid (FaSSIF)) was 319 µg/mL. For the same molecule, the Concentration ([2]; JP 2nd fluid for dissolution test) was 352 µg/mL and the Concentration ([2]; Water) was 280 µg/mL.

With `Cc1c(N2C[C@]3(N)CCC[C@]3(F)C2)c(F)cc2c(=O)c(C(=O)O)cn([C@@H]3C[C@@H]3F)c12` [sulfate of compound A] the “moisture absorption and desorption patterns” value [3] was “well consistent”, the “change in weight (moisture absorption and desorption properties)” value [3] was no more than 2% and the “change in weight (moisture absorption and desorption behaviors)” value ([3]; relative humidity of 40% to 60%) was no more than 2%.

With `Cc1c(N2C[C@]3(N)CCC[C@]3(F)C2)c(F)cc2c(=O)c(C(=O)O)cn([C@@H]3C[C@@H]3F)c12` [Monohydrochloride dihydrate, 7-[(1R,5S)-1-amino-5-fluoro-3-azabicyclo[3.3.0]octan-3-yl]-6-fluoro-1-[(1R,2S)-2-fluorocyclopropan-1-yl]-1,4-dihydro-8-methyl-4-oxoquinoline-3-carboxylic acid monohydrochloride dihydrate] the “Increase in related substances (%)” value ([1]; 60° C./0% RH, listed as monohydrochloride dihydrate of compound A, monohydrochloride dihydrate) was 0.02%, the “Increase in related substances (%)” value ([1]; 60° C./0% RH, monohydrochloride dihydrate) was 0.02% and the “moisture absorption and desorption patterns” value [3, 4] was “well consistent”. For the same molecule, the “moisture absorption and desorption patterns” value ([3]; monohydrochloride dihydrate) was “well consistent”, the “change in weight (moisture absorption and desorption properties)” value [3, 4] was no more than 2% and the solubility at 30 min ([2]; 37 °C, thermodynamic from solid, in each of water, JP 1st fluid, JP 2nd fluid, FaSSIF and FeSSIF) was no less than 2000 µg/mL. It also gave a Concentration ([2]; Fasted state simulated intestinal fluid (FaSSIF), monohydrochloride dihydrate) greater than 2000 µg/mL, a Concentration ([2]; Fed state simulated intestinal fluid (FeSSIF)) greater than 2000 µg/mL and a Concentration ([2]; JP 1st fluid for dissolution test) greater than 2000 µg/mL. It also gave a Concentration ([2]; JP 2nd fluid for dissolution test, monohydrochloride dihydrate) greater than 2000 µg/mL and a Concentration ([2]; Water, monohydrochloride dihydrate) greater than 2000 µg/mL.

In the case of `Cc1c(N2C[C@]3(N)CCC[C@]3(F)C2)c(F)cc2c(=O)c(C(=O)O)cn([C@@H]3C[C@@H]3F)c12` [monohydrochloride monohydrate], the “moisture absorption and desorption patterns” value ([3]; monohydrate) is reported as “substantially the same” and the “change in weight (moisture absorption and desorption properties)” value ([3]; monohydrate) is reported as no more than 1%.
